The experiment concerns ADP-induced aggregation of washed platelets. Put plainly: Inhibition of ADP-induced aggregation of washed platelets. The class given is cell-based. The note with it: human washed platelets, light transmission aggregometry, 2 min pre-incubation with inhibitor before ADP, read-out: IC50 as inhibitors of ADP-induced aggregation of washed platelets. As for the experimental part:
Isolation of platelets: Human blood is obtained from informed healthy adult volunteers. Blood is collected into one-sixth volume of acid/citrate/dextrose (ACD) buffer (85 mM sodium citrate, 65 mM citric acid, and 110 mM glucose). Collected blood is placed in a water bath at 37° C. for 30 minutes. Blood is then centrifuged at 275×g for 16 minutes at room temperature and the platelet-rich plasma is removed and centrifuged at 2200×g for 13 minutes at room temperature. […]
Aggregation Studies: ADP-induced platelet aggregation is determined by measuring the transmission of light through a 0.5 ml suspension of stirred (1000 rpm) washed platelets in a lumi-aggregometer at 37° C. […] Platelet aggregation is initiated by the addition of indicated concentrations of ADP or other agonists, and the light transmission is continuously recorded for at least 8 min. When inhibitors of platelet aggregation are tested, platelets are incubated for 2 min in the presence of indicated concentrations of inhibitor before addition of ADP or other agonists, and the response is recorded for at least 8 min. The potency of agonists and inhibitors of platelet aggregation is calculated from both the rate of aggregation and the maximal extent of aggregation obtained for each determination by fitting the data to a four-parameter logistic equation using the GraphPad software package (GraphPad Corp. San Diego, Calif.). […]

Among the data in patent US7932376B2, “Pyrimidine-based non-nucleotide composition and method for inhibiting platelet aggregation” (Inspire Pharmaceuticals, Inc., priority 2005, dated 2011) are IC50 values, retold here.

Structures are written as SMILES. Where two headings read alike, the source gives them in different places.

On to `CCNC(=O)Nc1ccn([C@@H]2O[C@H](COCc3ccccc3C(=O)O)C3O[C@H](/C=C/c4ccccc4)O[C@@H]32)c(=O)n1` (stereo partly drawn) [Compound 1, 2′,3′-trans-cinnamylacetal-5′-(2-carboxy)benzyloxy-6-N-ethylurea cytidine], for which the IC50 (usually the concentration that gives 50% inhibition) (Platelet) was 23.5 µM.

With `CCNC(=O)Nc1ccn(C2OC(COCc3c(F)cccc3C(=O)O)C3OC(/C=C/c4ccccc4)OC32)c(=O)n1` (stereo not drawn) [Compound 2, 2′,3′-trans-cinnamylacetal-5′-(2-carboxy-6-fluoro)benzyloxy-6-N-ethylurea cytidine], the IC50 stood at 1.3 µM.
